These results are taken from patent publication US7790716B2, “Fab I inhibitors” (Affinium Pharmaceuticals, Inc., priority 1999, dated 2010).

The target of this test is T1, FabK (Streptococcus pneumoniae, UniProt Q9FBC5).
T1 sequence (Q9FBC5 1-324): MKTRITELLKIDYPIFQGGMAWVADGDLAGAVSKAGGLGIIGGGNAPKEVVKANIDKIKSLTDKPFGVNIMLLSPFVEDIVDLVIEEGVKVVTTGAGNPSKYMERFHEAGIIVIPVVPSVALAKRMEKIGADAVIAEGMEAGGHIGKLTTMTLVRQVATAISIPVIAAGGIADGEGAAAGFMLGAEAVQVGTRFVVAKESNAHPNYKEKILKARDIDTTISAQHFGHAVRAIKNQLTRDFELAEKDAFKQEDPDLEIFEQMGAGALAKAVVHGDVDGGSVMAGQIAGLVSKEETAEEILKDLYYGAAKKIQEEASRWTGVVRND
As to the kind of experiment: FabK Enzyme Inhibition Assay. Format: biochemical. As for the experimental part:
FabK catalyses the reduction of enoyl-ACPs with the concomitant oxidation of NADH. The reduction of crotonoyl-ACP to butyryl-ACP can be monitored by following the change in absorbance at 340 nm as NADH is oxidized.
Assays were carried out in Costar 3696 half-area plates in a final assay volume of 150 uL on a Spectramax platereader. The substrates (NADH and crotonoyl-ACP) were incubated with FabK enzyme in 100 mM N-[2-acetamido]-2 iminodiacetic acid (ADA), pH 6.5, 100 mM NH4Cl, 4% glycerol at 30° C. and the reaction was monitored at 340 nm.
Using the above assay, compounds were tested for inhibition of FabK. 30 uL of inhibitor was added to a well of the plate. 30 uL of a 250 uM stock of NADH and 60 uL of a 67.5 uM stock of crotonoyl ACP were then added to the well. The plate was incubated at 30° C. for 5 min. The reaction was initiated by adding 30 uL of a 6.25 nM stock of enzyme to the well (also pre-incubated at 30° C.). The reaction was then monitored at A340 nm for 30 min at 30° C. Positive controls were reactions without compound. Negative controls were reactions without enzyme and without compound. Final concentrations in the assay mixture were 25 uM crotonoyl-ACP, 50 uM NADH, and 1.25 nM enzyme.
IC50s were determined for compounds by carrying out the assay at 8 different concentrations of compound (100 uM-0.75 uM) in duplicate. The IC50 was calculated using Grafit software (v 4.09). […]

Structures are written as SMILES.

As for `CN(Cc1cn(C)c2ccccc12)C(=O)/C=C/c1cnc2c(c1)CCC(=O)N2` [Example 62, (E)-N-methyl-N-(1-methyl-1H-indol-3-ylmethyl)-3-(7-oxo-5,6,7,8-tetrahydro-1,8-naphthyridin-3-yl)acrylamide], the “Fab K inhibition (result in words)” value is reported as “dual Fab I/Fab K inhibitors”.
